Assay results from paper PMC6650083, “Structure and functional analysis of a bacterial adhesin sugar-binding domain” (PLoS ONE, 2019).
Values joined by “and” are separate entries in the source; they are usually repeats but may differ in a detail not shown here. Equal values may be shown once. Read-outs that look alike come from different tables or passages of the source.

Experiments:
MhPA14 [1] = target: T1, MhPA14 (Marinobacter hydrocarbonoclasticus, UniProt A0ABF7PGZ6); experiment: Isothermal titration calorimetry (ITC); assay type: binding; settings: 30°C; for Kd: 400 μM MhPA14, 8 mM sugar
T1 sequence (A0ABF7PGZ6 entry or part of it): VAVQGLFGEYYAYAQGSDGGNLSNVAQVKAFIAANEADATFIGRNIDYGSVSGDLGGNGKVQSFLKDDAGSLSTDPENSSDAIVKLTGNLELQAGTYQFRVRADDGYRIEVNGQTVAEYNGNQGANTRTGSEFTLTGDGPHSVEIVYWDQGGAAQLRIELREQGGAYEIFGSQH
Protocol: Isothermal calorimetric titration (ITC) measurements were performed using a MicroCal VP-ITC calorimeter (Malvern) set at 30°C. […] Sugars were added from the computer-controlled rotating syringe (400 RPM) at 5-min intervals into the MhPA14 solution for a total of 50 injections. The data were analyzed by Origin software Version 5.0 (Malvern).

MhPA14 [2] = target: T1, MhPA14; experiment: Superdex 200 column affinity test (gradient elution of bound MhPA14); assay type: binding; settings: increasing gradient, 0-55 mM glucose or 0-5 mM EDTA over 45 min
Protocol: A Superdex 200 10/300 GL column (GE Healthcare) was used to probe the resin-binding ability of MhPA14. Approximately 1 mg of MhPA14 was loaded onto the column and washed with 3 column volumes of Protein Buffer. An increasing gradient of either glucose or EDTA was then implemented, rising from 0 mM– 55 mM glucose or 0 mM– 5 mM EDTA over 45 min.

EpA1 = target: EpA1; parameters: method as in PMID 22349222; settings: EpA1 and its sugar of choice; cited from earlier work
MhPA14 [3] = target: T1, MhPA14; experiment: Dextran-based (Superdex 200 resin) competitive binding assay
Protocol: Superdex 200 (S200) resin stored in 20% ethanol was washed twice in Protein Buffer using 6600 xg centrifugation. A millilitre of 1 mg/mL MhPA14 fused N-terminally to GFP, named GFP_MhPA14 (S1 Fig), was incubated with 300 μL of equilibrated S200 resin. Following 30 sec of vortexing and 2 min of incubation with slight mixing (nutation), the solution was centrifuged at 6600 xg for 2.5 min and the supernatant discarded. Protein buffer (1 mL) was added to the tube, and the process of mixing followed by centrifugation was repeated. The A280 of the resulting supernatant was taken to account for the minimal amount of non-sugar-related protein disassociation from the resin, and was used as a baseline reading. The supernatant was then returned into its original resin mixture tube with the addition of 1.67 μmoles (3 μL of 555 mM) of saccharide. […] After reading the A280 of the supernatant, the above process was repeated for seven tandem saccharide additions of 1.67 μmoles, as well as a final 5-μmole addition. […]
Attempts to solve MhPA14 structures with other sugars bounds–whether by soaking or co-crystallization–were fruitless. […] The amount of GFP-tagged MhPA14 released from the resin upon each sugar addition was measured using absorbance at 280 nm, which was plotted against concentration of free sugar to produce semi-quantitative binding curves (Fig 8). […]

MhPA14 [4] = target: T1, MhPA14; experiment: Fungal, bacterial and plant polysaccharide array set 2 (Imperial College) probed with GFP_MhPA14; assay type: binding; settings: 50 μg/mL GFP_MhPA14, anti-GFP antibody detection, average of duplicates
Protocol: The second array was screened at the Carbohydrate Microarray Facility (Glycosciences Laboratory, Imperial College). GFP_MhPA14 (50 μg/mL) was exposed to the ‘Fungal, bacterial and plant polysaccharide array set 2’, which contained duplicates of 20 saccharide probes extracted from a variety of organisms. An Alexa Fluora 647-tagged anti-GFP antibody was used for detection, and the duplicates were averaged to give the final RFU values.

[5] = fucose and glucose are averages of triplicate runs, read-out: Kd
[6] = fucose and glucose are averages of triplicate runs

Molecule	Kd (MhPA14 [1]; [5])	N (calculated stoichiometry) (MhPA14 [1]; [6])	Affinity for MhPA14 on polysaccharide array (MhPA14 [4])	further results
O=CC[C@@H](O)[C@H](O)[C@H](O)CO [2-deoxy-D-glucose]	228 µM	0.86	–	–
O=C(O)CN(CCN(CC(=O)O)CC(=O)O)CC(=O)O [EDTA]	–	–	–	Concentration at which MhPA14 eluted from Superdex S200 column (MhPA14 [2]): 3.5 mM
C[C@H](O)[C@@H](O)[C@@H](O)[C@H](O)C=O [Fucose, 6-deoxy-L-galactose]	58 µM and 58.2 µM	0.98 ± 0.03	–	–
O=C[C@H](O)[C@@H](O)[C@@H](O)[C@H](O)CO [Galactose]	–	1.00	–	Kd (MhPA14 [1]; Kd): > 1000 µM; Kd (MhPA14 [1]; Kd, fucose and glucose are averages of triplicate runs): 1540 µM; Kd (EpA1): 115 µM
OC[C@H]1OC(O)[C@H](O)[C@@H](O)[C@@H]1O (stereo partly drawn) [Glucose, glucose]	137 µM	1.01 ± 0.14	–	Concentration at which MhPA14 eluted from Superdex S200 column (MhPA14 [2]): 25 mM
CC(=O)N[C@@H]1[C@@H](O)[C@@H](O)[C@@H](CO)O[C@@H]1O [N-acetylgalactosamine]	–	–	–	Kdapp (apparent dissociation constant) (MhPA14 [3]; GFP_MhPA14 displaced from Superdex 200 resin by free sugar, A280 readout, triplicate, semi-quantitative): Non-binding; Binding in competitive binding assay (MhPA14 [3]; GFP_MhPA14 on Superdex 200 resin): unable to bind MhPA14 at all
curdlan	–	–	almost no affinity	–
dextran	–	–	modest affinities	–
lentinan	–	–	strongest affinity	–
pullulan	–	–	modest affinities	–
